Results published in US6706663B2, “Herbicidal 3-heterocyclic substituted benzisothiazole and benzisoxazole compounds” (Wyeth, priority 2000, dated 2004).

Experiments:
[1] = system: ABUTH (Abutilon theophrasti); assay: Postemergence herbicidal evaluation; type: in vivo, Medic.
Summary of the method: (§1)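 Seedlings grown for about two weeks were sprayed postemergence and then kept under standard greenhouse care. Injury was rated visually 4–5 weeks after treatment on a 0–9 scale against untreated controls, and ratings from repeat tests were averaged.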

[2] = system: AMBEL (Ambrosia artemisifolia); assay: Postemergence herbicidal evaluation; type: in vivo, L.
Summary of the method: as §1

[3] = system: CASOB (Cassia obtusifolia); assay: Postemergence herbicidal evaluation; type: in vivo, L.
Summary of the method: as §1

[4] = system: CHEAL (Chenopodium album); assay: Postemergence herbicidal evaluation; type: in vivo, L.
Summary of the method: as §1

[5] = system: IPOHE (Ipomoea hederacea); assay: Postemergence herbicidal evaluation; type: in vivo, (L.) Jacq.
Summary of the method: as §1

[6] = system: GLXMAW (Soybean, Williams); assay: Postemergence herbicidal evaluation; type: in vivo, Glycine max, (L.) Merr. cv Williams
Summary of the method: as §1

ORYSAT (Rice, Tebonnet) [7] = assay: Postemergence herbicidal evaluation; type: in vivo, Oryza sativa, (L.) Tebonnet
Summary of the method: as §1

[8] = system: ABUTH (Abutilon theophrasti); assay: Preemergence herbicidal evaluation; type: in vivo, Medic.; conditions: preemergence, rated 4-5 weeks after treatment
[9] = system: AMBEL (Ambrosia artemisifolia); assay: Preemergence herbicidal evaluation; type: in vivo, L.; conditions: preemergence, rated 4-5 weeks after treatment
Summary of the method: (§2)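 Greenhouse preemergence test: freshly planted cups were sprayed once with an aqueous acetone solution of compound. Injury was judged visually on a 0–9 scale relative to a control, four to five weeks later.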

[10] = system: CASOB (Cassia obtusifolia); assay: Preemergence herbicidal evaluation; type: in vivo, L.; conditions: preemergence, rated 4-5 weeks after treatment
Summary of the method: as §2

[11] = system: CHEAL (Chenopodium album); assay: Preemergence herbicidal evaluation; type: in vivo, L.; conditions: preemergence, rated 4-5 weeks after treatment
Summary of the method: as §2

[12] = system: IPOHE (Ipomoea hederacea); assay: Preemergence herbicidal evaluation; type: in vivo, (L.) Jacq.; conditions: preemergence, rated 4-5 weeks after treatment
[13] = system: ECHCG (Echinochloa crus-galli); assay: Preemergence herbicidal evaluation; type: in vivo, (L.) Beau; conditions: preemergence, rated 4-5 weeks after treatment
Summary of the method: as §2

SETVI (Setaria viridis) = assay: Preemergence herbicidal evaluation; type: in vivo, (L.) Beau; conditions: preemergence, rated 4-5 weeks after treatment
Summary of the method: as §2

[14] = system: GLXMAW (Soybean, Williams); assay: Preemergence herbicidal evaluation; type: in vivo, Glycine max, (L.) Merr. cv Williams; conditions: preemergence, rated 4-5 weeks after treatment
[15] = system: TRZAWR (Wheat, Winter, cv Riband); assay: Preemergence herbicidal evaluation; type: in vivo, Triticum aestivum; conditions: preemergence, rated 4-5 weeks after treatment
Summary of the method: as §2

ZEAMX (Corn, Field) = assay: Preemergence herbicidal evaluation; type: in vivo, Zea mays, L.; conditions: preemergence, rated 4-5 weeks after treatment
CYPIR (Cyperus iria) = assay: Flooded paddy, preemergence weed control; type: in vivo; conditions: rated 3-4 weeks after treatment, 0-9 rating scale
Summary of the method: (§3)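 Plants were established from seed or propagating organs in flooded silt loam, with the water surface held 1.5 to 3 cm above the soil for the entire experiment. Injury was assessed visually against a control and given a 0-9 score.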

[16] = system: MOOVA (Monochoria vaginalis); assay: Flooded paddy, preemergence weed control; type: in vivo, Presl.; conditions: rated 3-4 weeks after treatment, 0-9 rating scale
Summary of the method: as §3

ORYSAT (Rice, Tebonnet) [17] = assay: Flooded paddy, post-transplant rice tolerance; type: in vivo, Oryza sativa, (L.) Tebonnet; conditions: flooded paddy, post-transplant rice, rated 3-4 weeks after treatment, 0-9 rating scale
Summary of the method: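 Ten-day-old seedlings, 2/pot, silt loam; flood kept 1.5–3 cm over soil; herbicide applied post-transplant; greenhouse; score 0–9 visual vs control.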

## Cc1cc(C)c(-c2nsc3ccc(-n4c(=O)cc(C(F)(F)F)n(C)c4=O)cc23)s1 [Compound 27, 3-[3-(3,5-dimethyl-2-thienyl)-1,2-benzisothiazol-5-yl]-1-methyl-6-(trifluoromethyl)uracil]
[1]; rate 0.0320 kg/ha
  Postemergence herbicidal rating, ABUTH: 9.0
[1]; rate 0.0620 kg/ha
  Postemergence herbicidal rating, ABUTH: 9.0
[2]; rate 0.0320 kg/ha
  Postemergence herbicidal rating, AMBEL: 9.0
[2]; rate 0.0620 kg/ha
  Postemergence herbicidal rating, AMBEL: 9.0
[3]; rate 0.0320 kg/ha
  Postemergence herbicidal rating, CASOB: 3.0
[3]; rate 0.0620 kg/ha
  Postemergence herbicidal rating, CASOB: 3.0
[4]; rate 0.0320 kg/ha
  Postemergence herbicidal rating, CHEAL: 9.0
[4]; rate 0.0620 kg/ha
  Postemergence herbicidal rating, CHEAL: 9.0
[5]; rate 0.0320 kg/ha
  Postemergence herbicidal rating, IPOHE: 9.0
[5]; rate 0.0620 kg/ha
  Postemergence herbicidal rating, IPOHE: 9.0
[6]; rate 0.0320 kg/ha
  Postemergence herbicidal rating, GLXMAW: 6.5
[6]; rate 0.0620 kg/ha
  Postemergence herbicidal rating, GLXMAW: 6.0
ORYSAT (Rice, Tebonnet) [7]; rate 0.0320 kg/ha
  Postemergence herbicidal rating, ORYSAT: 4.5
ORYSAT (Rice, Tebonnet) [7]; rate 0.0620 kg/ha
  Postemergence herbicidal rating, ORYSAT: 4.5
[8]; Rate 0.0620 kg/ha
  ABUTH preemergence herbicidal rating: 5.0
[8]; Rate 0.1250 kg/ha
  ABUTH preemergence herbicidal rating: 6.0
[8]; Rate 0.2500 kg/ha
  ABUTH preemergence herbicidal rating: 9.0
[9]; Rate 0.0620 kg/ha
  AMBEL preemergence herbicidal rating: 5.0
[9]; Rate 0.1250 kg/ha
  AMBEL preemergence herbicidal rating: 5.0
[9]; Rate 0.2500 kg/ha
  AMBEL preemergence herbicidal rating: 9.0
[10]; Rate 0.0620 kg/ha
  CASOB preemergence herbicidal rating: 1.0
[10]; Rate 0.1250 kg/ha
  CASOB preemergence herbicidal rating: 5.0
[10]; Rate 0.2500 kg/ha
  CASOB preemergence herbicidal rating: 4.0
[11]; Rate 0.0620 kg/ha
  CHEAL preemergence herbicidal rating: 9.0
[11]; Rate 0.1250 kg/ha
  CHEAL preemergence herbicidal rating: 9.0
[11]; Rate 0.2500 kg/ha
  CHEAL preemergence herbicidal rating: 9.0
[12]; Rate 0.1250 kg/ha
  IPOHE preemergence herbicidal rating: 4.0
[12]; Rate 0.2500 kg/ha
  IPOHE preemergence herbicidal rating: 3.0
[13]; Rate 0.0620 kg/ha
  ECHCG preemergence herbicidal rating: 6.0
[13]; Rate 0.1250 kg/ha
  ECHCG preemergence herbicidal rating: 7.0
[13]; Rate 0.2500 kg/ha
  ECHCG preemergence herbicidal rating: 7.0
SETVI (Setaria viridis); Rate 0.0620 kg/ha
  SETVI preemergence herbicidal rating: 9.0
SETVI (Setaria viridis); Rate 0.1250 kg/ha
  SETVI preemergence herbicidal rating: 9.0
SETVI (Setaria viridis); Rate 0.2500 kg/ha
  SETVI preemergence herbicidal rating: 9.0
[14]; Rate 0.0620 kg/ha
  GLXMAW preemergence herbicidal rating: 1.0
[14]; Rate 0.1250 kg/ha
  GLXMAW preemergence herbicidal rating: 2.0
[14]; Rate 0.2500 kg/ha
  GLXMAW preemergence herbicidal rating: 1.0
[15]; Rate 0.0620 kg/ha
  TRZAWR preemergence herbicidal rating: 2.0
[15]; Rate 0.1250 kg/ha
  TRZAWR preemergence herbicidal rating: 2.0
[15]; Rate 0.2500 kg/ha
  TRZAWR preemergence herbicidal rating: 2.0
ZEAMX (Corn, Field); Rate 0.0620 kg/ha
  ZEAMX preemergence herbicidal rating: 3.0
ZEAMX (Corn, Field); Rate 0.1250 kg/ha
  ZEAMX preemergence herbicidal rating: 3.0
ZEAMX (Corn, Field); Rate 0.2500 kg/ha
  ZEAMX preemergence herbicidal rating: 3.0
CYPIR (Cyperus iria); rate 0.0080 kg/ha
  herbicidal rating, CYPIR: 4.5
CYPIR (Cyperus iria); rate 0.0320 kg/ha
  herbicidal rating, CYPIR: 9.0
CYPIR (Cyperus iria); rate 0.1250 kg/ha
  herbicidal rating, CYPIR: 9.0
[16]; rate 0.0080 kg/ha
  herbicidal rating, MOOVA: 6.0
[16]; rate 0.0320 kg/ha
  herbicidal rating, MOOVA: 9.0
[16]; rate 0.1250 kg/ha
  herbicidal rating, MOOVA: 9.0
ORYSAT (Rice, Tebonnet) [17]; rate 0.0080 kg/ha
  herbicidal rating, ORYSAT (rice tolerance): 1.0
ORYSAT (Rice, Tebonnet) [17]; rate 0.0320 kg/ha
  herbicidal rating, ORYSAT (rice tolerance): 2.0
ORYSAT (Rice, Tebonnet) [17]; rate 0.1250 kg/ha
  herbicidal rating, ORYSAT (rice tolerance): 3.7

## Cc1ccc(-c2nsc3ccc(N4C(=O)C5=C(CCCC5)C4=O)cc23)s1 [Compound 20, N-[3-(5-methyl-2-thienyl)-1,2-benzisothiazol-5-yl]-1-cyclohexene-1,2-dicarboximide]
[1]; rate 0.0320 kg/ha
  Postemergence herbicidal rating, ABUTH: 7.0
[1]; rate 0.0620 kg/ha
  Postemergence herbicidal rating, ABUTH: 9.0
[1]; rate 0.1250 kg/ha
  Postemergence herbicidal rating, ABUTH: 9.0
[2]; rate 0.0320 kg/ha
  Postemergence herbicidal rating, AMBEL: 6.0
[2]; rate 0.0620 kg/ha
  Postemergence herbicidal rating, AMBEL: 6.0
[2]; rate 0.1250 kg/ha
  Postemergence herbicidal rating, AMBEL: 9.0
[3]; rate 0.0320 kg/ha
  Postemergence herbicidal rating, CASOB: 1.0
[3]; rate 0.0620 kg/ha
  Postemergence herbicidal rating, CASOB: 1.0
[3]; rate 0.1250 kg/ha
  Postemergence herbicidal rating, CASOB: 1.0
[4]; rate 0.0320 kg/ha
  Postemergence herbicidal rating, CHEAL: 3.0
[4]; rate 0.0620 kg/ha
  Postemergence herbicidal rating, CHEAL: 5.0
[4]; rate 0.1250 kg/ha
  Postemergence herbicidal rating, CHEAL: 5.0
[5]; rate 0.0320 kg/ha
  Postemergence herbicidal rating, IPOHE: 6.0
[5]; rate 0.0620 kg/ha
  Postemergence herbicidal rating, IPOHE: 9.0
[5]; rate 0.1250 kg/ha
  Postemergence herbicidal rating, IPOHE: 9.0
[6]; rate 0.0320 kg/ha
  Postemergence herbicidal rating, GLXMAW: 5.5
[6]; rate 0.0620 kg/ha
  Postemergence herbicidal rating, GLXMAW: 5.5
[6]; rate 0.1250 kg/ha
  Postemergence herbicidal rating, GLXMAW: 5.5
ORYSAT (Rice, Tebonnet) [7]; rate 0.0320 kg/ha
  Postemergence herbicidal rating, ORYSAT: 2.5
ORYSAT (Rice, Tebonnet) [7]; rate 0.0620 kg/ha
  Postemergence herbicidal rating, ORYSAT: 3.0
ORYSAT (Rice, Tebonnet) [7]; rate 0.1250 kg/ha
  Postemergence herbicidal rating, ORYSAT: 4.5
[8]; Rate 0.0620 kg/ha
  ABUTH preemergence herbicidal rating: 1.0
[8]; Rate 0.1250 kg/ha
  ABUTH preemergence herbicidal rating: 2.0
[8]; Rate 0.2500 kg/ha
  ABUTH preemergence herbicidal rating: 4.0
[9]; Rate 0.0620 kg/ha
  AMBEL preemergence herbicidal rating: 0.0
[9]; Rate 0.1250 kg/ha
  AMBEL preemergence herbicidal rating: 1.0
[9]; Rate 0.2500 kg/ha
  AMBEL preemergence herbicidal rating: 2.0
[10]; Rate 0.0620 kg/ha
  CASOB preemergence herbicidal rating: 0.0
[10]; Rate 0.1250 kg/ha
  CASOB preemergence herbicidal rating: 0.0
[10]; Rate 0.2500 kg/ha
  CASOB preemergence herbicidal rating: 2.0
[11]; Rate 0.0620 kg/ha
  CHEAL preemergence herbicidal rating: 0.0
[11]; Rate 0.1250 kg/ha
  CHEAL preemergence herbicidal rating: 2.0
[11]; Rate 0.2500 kg/ha
  CHEAL preemergence herbicidal rating: 3.0
[12]; Rate 0.0620 kg/ha
  IPOHE preemergence herbicidal rating: 0.0
[12]; Rate 0.1250 kg/ha
  IPOHE preemergence herbicidal rating: 0.0
[12]; Rate 0.2500 kg/ha
  IPOHE preemergence herbicidal rating: 0.0
[13]; Rate 0.0620 kg/ha
  ECHCG preemergence herbicidal rating: 0.0
[13]; Rate 0.1250 kg/ha
  ECHCG preemergence herbicidal rating: 0.0
[13]; Rate 0.2500 kg/ha
  ECHCG preemergence herbicidal rating: 0.0
SETVI (Setaria viridis); Rate 0.0620 kg/ha
  SETVI preemergence herbicidal rating: 0.0
SETVI (Setaria viridis); Rate 0.1250 kg/ha
  SETVI preemergence herbicidal rating: 0.0
SETVI (Setaria viridis); Rate 0.2500 kg/ha
  SETVI preemergence herbicidal rating: 0.0
[14]; Rate 0.0620 kg/ha
  GLXMAW preemergence herbicidal rating: 0.0
[14]; Rate 0.1250 kg/ha
  GLXMAW preemergence herbicidal rating: 0.0
[14]; Rate 0.2500 kg/ha
  GLXMAW preemergence herbicidal rating: 0.0
[15]; Rate 0.0620 kg/ha
  TRZAWR preemergence herbicidal rating: 0.0
[15]; Rate 0.1250 kg/ha
  TRZAWR preemergence herbicidal rating: 0.0
[15]; Rate 0.2500 kg/ha
  TRZAWR preemergence herbicidal rating: 0.0
ZEAMX (Corn, Field); Rate 0.0620 kg/ha
  ZEAMX preemergence herbicidal rating: 0.0
ZEAMX (Corn, Field); Rate 0.1250 kg/ha
  ZEAMX preemergence herbicidal rating: 0.0
ZEAMX (Corn, Field); Rate 0.2500 kg/ha
  ZEAMX preemergence herbicidal rating: 0.0
CYPIR (Cyperus iria); rate 0.0320 kg/ha
  herbicidal rating, CYPIR: 2.0
CYPIR (Cyperus iria); rate 0.1250 kg/ha
  herbicidal rating, CYPIR: 3.0
[16]; rate 0.0320 kg/ha
  herbicidal rating, MOOVA: 9.0
[16]; rate 0.1250 kg/ha
  herbicidal rating, MOOVA: 9.0
ORYSAT (Rice, Tebonnet) [17]; rate 0.0320 kg/ha
  herbicidal rating, ORYSAT (rice tolerance): 2.0
ORYSAT (Rice, Tebonnet) [17]; rate 0.1250 kg/ha
  herbicidal rating, ORYSAT (rice tolerance): 2.0
